According to US8765748B2, “Indazolyl, benzimidazolyl, benzotriazolyl substituted indolinone derivatives as kinase inhibitors useful in the treatment of cancer” (University Health Network, priority 2007, dated 2014):
“Also recorded” adds a separate entry of the source.

What was measured:
PLK2 = biological target: T1, PLK2 (Homo sapiens, UniProt Q9NYY3); assay: PLK2 Inhibition Assay (Z-Lyte); type: biochemical; conditions: 10 μM compound; read-out: PLK2 relative inhibition percentage at a dose of 10 μM
T1 construct: purchased Invitrogen PV4204
T1 sequence (Q9NYY3 whole entry): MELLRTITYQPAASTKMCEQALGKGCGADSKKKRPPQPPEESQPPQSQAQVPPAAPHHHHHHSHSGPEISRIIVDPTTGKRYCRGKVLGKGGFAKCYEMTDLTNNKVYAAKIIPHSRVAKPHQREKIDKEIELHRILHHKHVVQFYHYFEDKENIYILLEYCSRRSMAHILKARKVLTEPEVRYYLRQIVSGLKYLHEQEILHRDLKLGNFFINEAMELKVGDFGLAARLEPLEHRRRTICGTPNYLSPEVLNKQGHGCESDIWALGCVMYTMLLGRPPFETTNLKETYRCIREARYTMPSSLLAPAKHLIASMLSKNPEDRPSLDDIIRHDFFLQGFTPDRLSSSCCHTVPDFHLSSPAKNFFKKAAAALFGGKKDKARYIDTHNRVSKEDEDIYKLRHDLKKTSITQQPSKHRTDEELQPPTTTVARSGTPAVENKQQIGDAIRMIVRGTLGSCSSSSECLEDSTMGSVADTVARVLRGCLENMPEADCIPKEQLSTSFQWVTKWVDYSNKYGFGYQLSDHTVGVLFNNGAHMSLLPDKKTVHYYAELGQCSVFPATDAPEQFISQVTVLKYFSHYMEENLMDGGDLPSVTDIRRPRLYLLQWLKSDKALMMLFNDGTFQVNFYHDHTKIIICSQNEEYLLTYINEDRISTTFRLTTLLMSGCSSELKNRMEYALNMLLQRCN
Description: (§1) PLK2 inhibition was determined using the Z-Lyte assay kit from Invitrogen (cat #PV3802). The assay was performed using the recommended manufacturer's instructions with 60 μM ATP and 133 nM PLK2 (Invitrogen cat #PV4204). The % inhibition values were determined according to the manufacturer's directions and IC50 values were obtained using a non-linear 4 point logistic curve fit (XLfit4, IDBS)

HUV-EC-C cells = assay: In Vitro Angiogenesis Assay (tube formation); type: cell-based; conditions: 4 hr incubation, 8,000 cells per well, FIG. 1
Description: HUV-EC-C cells were obtained from the American Type Culture Collection (ATCC, CRL-1730), and were used at early passage for the assay. The in vitro Angiogenesis Assay Kit (Chemicon) was used according to the manufacturer's recommendation. An ice-cold mixture of ECMatrix was transferred into a precooled 96-well plate. After the matrix solution had solidified (>1 hr incubation at 37° C.), 8,000 cells were mixed with the appropriate inhibitor concentration (in 100 microliters EGM-2) and plated into each well. After incubation at 37° C. for 4 hr, tube formation was inspected. Two methods, pattern recognition and branch point counting, were used to quantify the progression of angiogenesis and expressed as a percentage of the control tube count (FIG. 1).

Abl = Abl (Homo sapiens, UniProt P00519); assay: Millipore kinase assay, radiolabelled phosphopeptide filter binding, IC50 estimate; type: biochemical; design: purchased Millipore (assay service); conditions: estimated from inhibition at three compound concentrations; ATP at the Km
Description: (§2) Kinase assays at Millipore were performed using a radiolabelled phosphopeptide filter binding detection system, in duplicate, at each compound concentration. The ATP substrate concentration in the reactions was at the Km for each enzyme.
(§3) To allow for a more direct comparison of compound inhibition, an IC50 value was estimated from the inhibition determined at three compound concentrations. Several assumptions were made to allow this calculation using a 4 parameter non linear curve fit model, including full inhibition set at 100%, no inhibition set to 0%, and a curve fit parameter set at 1. The inflection point was reported as the estimated IC50.

TRKA = TRKA (Homo sapiens, UniProt P04629); assay: as above; type: biochemical; design: purchased Millipore (assay service); conditions: estimated from inhibition at three compound concentrations; ATP at the Km
TRKA, sequence (P04629 33-796): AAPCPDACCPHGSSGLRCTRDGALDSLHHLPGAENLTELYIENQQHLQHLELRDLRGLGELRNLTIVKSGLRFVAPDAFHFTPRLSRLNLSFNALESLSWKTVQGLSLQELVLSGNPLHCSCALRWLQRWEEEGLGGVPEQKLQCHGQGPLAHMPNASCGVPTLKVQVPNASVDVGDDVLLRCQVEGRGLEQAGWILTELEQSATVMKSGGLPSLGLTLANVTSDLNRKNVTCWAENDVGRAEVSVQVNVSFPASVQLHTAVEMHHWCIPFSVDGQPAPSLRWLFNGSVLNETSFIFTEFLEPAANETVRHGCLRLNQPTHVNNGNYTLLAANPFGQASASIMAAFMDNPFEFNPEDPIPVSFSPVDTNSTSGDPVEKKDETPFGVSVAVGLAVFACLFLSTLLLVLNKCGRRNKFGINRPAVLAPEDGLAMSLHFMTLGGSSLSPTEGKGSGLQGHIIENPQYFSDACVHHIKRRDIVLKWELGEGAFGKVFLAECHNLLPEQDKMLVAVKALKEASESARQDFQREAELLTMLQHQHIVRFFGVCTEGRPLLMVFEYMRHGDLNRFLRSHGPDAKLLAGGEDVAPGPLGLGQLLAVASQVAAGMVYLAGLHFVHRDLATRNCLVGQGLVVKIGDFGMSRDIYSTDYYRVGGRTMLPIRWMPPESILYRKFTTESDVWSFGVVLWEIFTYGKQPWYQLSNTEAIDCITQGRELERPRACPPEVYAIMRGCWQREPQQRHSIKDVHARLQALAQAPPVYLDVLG
Description: as §2, §3

Ret = Ret (Homo sapiens, UniProt P07949); assay: as above; type: biochemical; design: purchased Millipore (assay service); conditions: estimated from inhibition at three compound concentrations; ATP at the Km
Description: as §2, §3

Lyn = Lyn (Homo sapiens, UniProt P07948); assay: as above; type: biochemical; design: purchased Millipore (assay service); conditions: estimated from inhibition at three compound concentrations; ATP at the Km
Description: as §2, §3

Aurora B = biological target: T2, Aurora B (Homo sapiens, UniProt Q96GD4); assay: Aurora B Inhibition Assay (Z-Lyte); type: biochemical; conditions: 128 μM ATP, 28 nM Aurora B; read-out: Aurora B IC50 Ranges
T2 construct: purchased Invitrogen PV3970
T2 sequence (Q96GD4 whole entry): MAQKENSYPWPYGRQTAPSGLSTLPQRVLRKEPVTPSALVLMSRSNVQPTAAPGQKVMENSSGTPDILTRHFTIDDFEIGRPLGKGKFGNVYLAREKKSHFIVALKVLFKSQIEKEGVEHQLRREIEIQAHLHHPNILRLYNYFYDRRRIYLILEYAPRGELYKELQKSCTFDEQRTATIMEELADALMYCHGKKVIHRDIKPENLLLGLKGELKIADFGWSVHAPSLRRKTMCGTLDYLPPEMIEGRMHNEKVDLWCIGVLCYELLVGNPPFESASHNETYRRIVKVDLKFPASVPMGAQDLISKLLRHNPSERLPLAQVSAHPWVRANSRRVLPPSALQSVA
Description: as §1, with “Aurora B” for “PLK2”, “Invitrogen.” for “Invitrogen (cat #PV3802).”, “128” for “60”, “28” for “133”, “#PV3970).” for “#PV4204).”

Aurora A = biological target: T3, Aurora A (Homo sapiens, UniProt O14965); assay: Aurora A Inhibition Assay (Z-Lyte); type: biochemical; conditions: for IC50: 20 μM ATP, 12 nM Aurora A, read-out: Aurora A IC50 Ranges
T3 construct: purchased Invitrogen PV3612
T3 sequence (O14965 1-403): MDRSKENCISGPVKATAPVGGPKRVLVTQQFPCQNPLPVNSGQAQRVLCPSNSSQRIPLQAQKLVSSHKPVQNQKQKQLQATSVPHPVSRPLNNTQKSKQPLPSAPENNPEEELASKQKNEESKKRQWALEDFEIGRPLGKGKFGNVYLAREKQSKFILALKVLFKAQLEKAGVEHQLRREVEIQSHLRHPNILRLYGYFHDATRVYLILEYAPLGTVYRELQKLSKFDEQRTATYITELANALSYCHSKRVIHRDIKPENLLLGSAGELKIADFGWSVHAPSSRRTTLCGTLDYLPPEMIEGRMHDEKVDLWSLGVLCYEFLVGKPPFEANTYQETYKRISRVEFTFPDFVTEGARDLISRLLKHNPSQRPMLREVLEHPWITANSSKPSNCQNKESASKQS
Description: as §1, with “Aurora A” for “PLK2”, “Invitrogen.” for “Invitrogen (cat #PV3802).”, “20” for “60”, “12” for “133”, “#PV3612).” for “#PV4204).”

human PLK4 = biological target: T4, human PLK4 (Homo sapiens, UniProt O00444); assay: PLK4 Inhibition Assay (indirect ELISA); type: biochemical; conditions: 15 μM ATP, 4 nM GST-PLK4; read-out: PLK4 IC50 Ranges
T4 construct: amino terminal GST fusion of residues 1-391 of human PLK4; made in house; host or cells: E. coli
T4 sequence (O00444 1-391): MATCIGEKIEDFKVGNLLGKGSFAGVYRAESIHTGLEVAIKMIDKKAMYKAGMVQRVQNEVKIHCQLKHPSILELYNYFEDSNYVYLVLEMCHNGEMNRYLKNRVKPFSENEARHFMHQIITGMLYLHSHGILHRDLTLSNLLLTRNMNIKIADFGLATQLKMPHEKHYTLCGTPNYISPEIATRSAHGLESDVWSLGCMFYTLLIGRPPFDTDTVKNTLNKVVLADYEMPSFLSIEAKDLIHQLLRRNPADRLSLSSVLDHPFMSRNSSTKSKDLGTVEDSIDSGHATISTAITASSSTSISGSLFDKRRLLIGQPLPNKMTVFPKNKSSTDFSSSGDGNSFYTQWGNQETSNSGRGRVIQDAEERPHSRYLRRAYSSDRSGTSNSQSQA
Summary of the method: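 Dephosphorylated (lambda phosphatase) GST-PLK4 activity read by indirect ELISA. Compounds were pre-incubated with enzyme for 15 minutes before ATP was added. IC50 came from a non-linear 4-point logistic fit.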

FGFR1 = assay: Millipore kinase assay, radiolabelled phosphopeptide filter binding, IC50 estimate; type: biochemical; conditions: estimated from inhibition at three compound concentrations; ATP at the Km
Description: as §2, §3

KDR = biological target: T5, KDR (Homo sapiens, UniProt P35968); assay: as above; type: biochemical; conditions: estimated from inhibition at three compound concentrations; ATP at the Km
T5 construct: purchased Millipore (assay service)
T5 sequence (P35968 20-1356): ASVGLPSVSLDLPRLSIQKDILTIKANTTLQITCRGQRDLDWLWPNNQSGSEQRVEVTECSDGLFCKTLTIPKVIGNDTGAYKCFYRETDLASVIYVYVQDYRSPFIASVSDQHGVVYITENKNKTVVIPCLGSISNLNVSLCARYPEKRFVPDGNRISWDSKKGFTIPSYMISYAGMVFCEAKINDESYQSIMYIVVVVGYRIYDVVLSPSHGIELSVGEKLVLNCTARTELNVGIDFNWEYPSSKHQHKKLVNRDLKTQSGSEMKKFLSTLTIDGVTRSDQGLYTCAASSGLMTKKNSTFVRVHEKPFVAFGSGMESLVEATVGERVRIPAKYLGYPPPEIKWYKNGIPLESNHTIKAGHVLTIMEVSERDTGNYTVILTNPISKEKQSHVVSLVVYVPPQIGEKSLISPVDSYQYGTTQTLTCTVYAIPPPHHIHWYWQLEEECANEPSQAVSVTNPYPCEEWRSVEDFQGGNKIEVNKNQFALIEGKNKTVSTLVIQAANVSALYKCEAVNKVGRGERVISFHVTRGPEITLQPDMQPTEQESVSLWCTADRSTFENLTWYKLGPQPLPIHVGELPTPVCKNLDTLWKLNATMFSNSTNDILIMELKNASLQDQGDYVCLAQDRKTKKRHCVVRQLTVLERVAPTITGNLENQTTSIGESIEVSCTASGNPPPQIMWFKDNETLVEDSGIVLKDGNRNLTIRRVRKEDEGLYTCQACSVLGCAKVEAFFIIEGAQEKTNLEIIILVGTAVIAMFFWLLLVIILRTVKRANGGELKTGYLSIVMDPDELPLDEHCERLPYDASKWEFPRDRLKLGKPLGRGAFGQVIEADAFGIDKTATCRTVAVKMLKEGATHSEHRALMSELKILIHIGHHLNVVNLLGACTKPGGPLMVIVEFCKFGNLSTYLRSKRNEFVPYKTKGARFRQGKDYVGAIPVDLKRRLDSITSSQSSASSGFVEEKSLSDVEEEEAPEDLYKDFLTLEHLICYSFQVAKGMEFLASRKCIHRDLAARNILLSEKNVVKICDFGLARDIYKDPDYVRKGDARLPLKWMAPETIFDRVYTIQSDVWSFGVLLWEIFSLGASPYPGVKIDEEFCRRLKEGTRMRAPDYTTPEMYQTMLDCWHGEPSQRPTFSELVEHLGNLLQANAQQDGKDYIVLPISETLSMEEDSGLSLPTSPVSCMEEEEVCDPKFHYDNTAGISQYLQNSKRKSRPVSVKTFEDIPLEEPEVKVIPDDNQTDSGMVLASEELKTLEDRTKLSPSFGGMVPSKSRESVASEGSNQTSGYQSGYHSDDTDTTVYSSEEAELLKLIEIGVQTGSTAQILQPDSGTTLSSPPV
Description: as §2, §3

PDGFRβ = biological target: T6, PDGFRβ (Homo sapiens, UniProt P09619); assay: as above; type: biochemical; conditions: estimated from inhibition at three compound concentrations; ATP at the Km
T6 construct: purchased Millipore (assay service)
T6 sequence (P09619 33-1106): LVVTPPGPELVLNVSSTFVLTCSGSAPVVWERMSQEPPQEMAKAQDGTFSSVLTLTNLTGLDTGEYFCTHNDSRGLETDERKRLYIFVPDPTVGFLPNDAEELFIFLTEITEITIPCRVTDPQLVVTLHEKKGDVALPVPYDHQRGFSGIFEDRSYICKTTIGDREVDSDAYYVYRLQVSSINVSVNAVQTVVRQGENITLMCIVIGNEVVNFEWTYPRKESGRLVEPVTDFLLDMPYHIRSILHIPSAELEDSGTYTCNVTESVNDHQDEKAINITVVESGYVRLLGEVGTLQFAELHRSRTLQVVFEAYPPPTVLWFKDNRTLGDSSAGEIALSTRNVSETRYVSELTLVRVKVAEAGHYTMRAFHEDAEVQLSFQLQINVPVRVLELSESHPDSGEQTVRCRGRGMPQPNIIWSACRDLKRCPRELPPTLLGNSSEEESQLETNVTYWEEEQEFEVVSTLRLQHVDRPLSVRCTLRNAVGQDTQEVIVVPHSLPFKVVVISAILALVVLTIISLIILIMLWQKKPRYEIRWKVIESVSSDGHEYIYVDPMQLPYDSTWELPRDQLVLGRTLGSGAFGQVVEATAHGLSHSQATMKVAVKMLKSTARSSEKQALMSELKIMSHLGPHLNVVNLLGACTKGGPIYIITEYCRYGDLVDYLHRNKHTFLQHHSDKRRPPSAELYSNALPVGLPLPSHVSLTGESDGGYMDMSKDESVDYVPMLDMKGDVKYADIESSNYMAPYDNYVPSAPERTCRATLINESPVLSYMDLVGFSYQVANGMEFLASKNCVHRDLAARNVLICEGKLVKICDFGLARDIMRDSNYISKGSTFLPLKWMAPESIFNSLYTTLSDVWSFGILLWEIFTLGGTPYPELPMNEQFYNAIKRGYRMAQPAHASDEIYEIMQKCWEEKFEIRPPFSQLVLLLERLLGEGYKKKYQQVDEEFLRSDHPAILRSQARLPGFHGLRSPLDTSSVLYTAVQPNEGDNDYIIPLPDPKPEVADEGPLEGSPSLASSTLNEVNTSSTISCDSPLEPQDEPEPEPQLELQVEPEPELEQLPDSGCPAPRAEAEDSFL
Description: as §2, §3

FLT-1 = biological target: T7, FLT-1 (Homo sapiens, UniProt P17948); assay: as above; type: biochemical; conditions: estimated from inhibition at three compound concentrations; ATP at the Km
T7 construct: purchased Millipore (assay service)
Description: as §2, §3

PLK1 = biological target: T8, PLK1 (Homo sapiens, UniProt P53350); assay: PLK1 Inhibition Assay (Z-Lyte); type: biochemical; conditions: 10 μM compound; read-out: PLK1 relative inhibition percentage at a dose of 10 μM
T8 construct: purchased Invitrogen PV3501
T8 sequence (P53350 whole entry): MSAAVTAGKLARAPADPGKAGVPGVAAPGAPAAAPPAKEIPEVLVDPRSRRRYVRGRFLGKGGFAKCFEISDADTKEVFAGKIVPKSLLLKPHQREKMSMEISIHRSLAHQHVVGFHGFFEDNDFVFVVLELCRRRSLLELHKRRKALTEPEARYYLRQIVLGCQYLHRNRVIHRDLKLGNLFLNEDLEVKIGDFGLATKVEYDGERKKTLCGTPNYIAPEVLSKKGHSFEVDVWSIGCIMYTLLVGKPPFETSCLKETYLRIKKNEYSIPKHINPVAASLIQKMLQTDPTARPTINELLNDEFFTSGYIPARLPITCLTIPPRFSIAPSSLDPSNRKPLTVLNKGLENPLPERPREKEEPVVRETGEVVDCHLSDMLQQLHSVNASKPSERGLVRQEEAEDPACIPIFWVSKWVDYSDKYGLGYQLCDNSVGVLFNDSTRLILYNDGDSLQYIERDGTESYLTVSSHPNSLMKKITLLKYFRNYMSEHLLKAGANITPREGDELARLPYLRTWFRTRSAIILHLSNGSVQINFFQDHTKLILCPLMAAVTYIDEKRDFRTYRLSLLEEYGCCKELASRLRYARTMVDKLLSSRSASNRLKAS
Description: PLK1 inhibition was determined using the Z-Lyte assay kit from Invitrogen (cat #PV3802). […] The % inhibition values were determined according to the manufacturer's directions and IC50 values were obtained using a non-linear 4 point logistic curve fit (XLfit4, IDBS)

A549 lung cancer cells = assay: Cell growth inhibition, Sulforhodamine B assay (SRB); type: cell-based; conditions: Homo sapiens, A549, 120 h, 5 days culture, read-out: Cell Line GI50 Range, A-549
Summary of the method: (§4)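 Cells seeded 24 h before compound addition, then exposed to 10 nM–50 μM final compound in DMEM + 10% FBS for 5 days. Growth measured by TCA fixation, SRB staining and absorbance at 570 nm; % inhibition relative to DMSO-only cells, with GI50 fitted for cytotoxic compounds.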

[1] = system: HCC1954 basal breast cancer cell line; assay: as above; type: cell-based; conditions: Homo sapiens, HCC1954, 120 h, 5 days culture, read-out: Cell Line GI50 Range, HCC-1954
Summary of the method: as §4

[2] = system: MCF-7 luminal breast cancer cell line; assay: as above; type: cell-based; conditions: Homo sapiens, MCF7, 120 h; 5 days culture, SRB; read-out: Cell Line GI50 Range, MCF-7
Summary of the method: as §4

[3] = system: MDA-MB-468 basal breast cancer cell line; assay: as above; type: cell-based; conditions: Homo sapiens, MDA-MB-468, 120 h; 5 days culture, SRB; read-out: Cell Line GI50 Range, MDA-MB-468
Summary of the method: as §4

[4] = system: human mammary epithelial primary cells (HMEC); assay: as above; type: cell-based; conditions: 120 h, 5 days culture, read-out: Cell Line GI50 Range, HMEC
Summary of the method: as §4

SW620 colon cancer cells = assay: as above; type: cell-based; conditions: Homo sapiens, SW-620, 120 h, 5 days culture, read-out: Cell Line GI50 Range, SW-620
Summary of the method: as §4

SMILES	inhibition at 10 µM (PLK2)	IC50 (Aurora B)	IC50 (Aurora A)	IC50 (human PLK4)	inhibition at 10 µM (PLK1)	GI50 (A549 lung cancer cells)	GI50 [1]	GI50 [2]	GI50 [3]	GI50 [4]	GI50 (SW620 colon cancer cells)	other results
O=C1Nc2ccccc2/C1=C\c1ccc2c(/C=C/c3ccncc3)n[nH]c2c1 [Example A57, (E)-3-((3-((E)-2-(pyridin-4-yl)vinyl)-1H-indazol-6-yl)methylene)-indolin-2-one]	> 50%	< 5 µM	< 5 µM	< 5 µM	–	–	–	–	–	–	–	Inhibition of HUV-EC-C Cell Tube Formation (percentage of the control tube count) (HUV-EC-C cells): anti-agiogenic effects at micromolar concentrations; also recorded: inhibition of HUV-EC-C Cell Tube Formation; IC50 (Abl): < 5 µM; IC50 (TRKA): < 5 µM; IC50 (Ret): < 5 µM; IC50 (Lyn): < 5 µM; IC50 (FGFR1): < 5 µM; IC50 (KDR): < 5 µM; IC50 (PDGFRβ): < 5 µM; IC50 (FLT-1): < 5 µM
O=C1Nc2ccc(Cl)cc2/C1=C\c1ccc2c(/C=C/c3ccncc3)n[nH]c2c1 [Example A84, (E)-5-chloro-3-((3-((E)-2-(pyridin-4-yl)vinyl)-1H-indazol-6-yl)methylene)indolin-2-one]	< 50%	< 5 µM	< 5 µM	< 5 µM	< 50%	> 50 µM	5 to 20 µM	< 5 µM	< 5 µM	> 50 µM	< 5 µM	–
Cc1ncsc1/C=C/c1n[nH]c2cc(/C=C3/C(=O)Nc4ccccc43)ccc12 [Example A103, (E)-3-((3-((E)-2-(4-methylthiazol-5-yl)vinyl)-1H-indazol-6-yl)methyl-ene)indolin-2-one]	< 50%	–	–	–	< 50%	5 to 20 µM	5 to 20 µM	< 5 µM	< 5 µM	> 50 µM	< 5 µM	inhibition at 10 µM (Aurora A; 10 μM compound, read-out: Aurora A relative inhibition percentage at a dose of 10 μM): > 50%
